Results from US20240239755A1, “SUBSTITUTED PYRIDAZINONES, SALTS OR N-OXIDES THEREOF AND THEIR USE AS HERBICIDALLY ACTIVE SUBSTANCES” (Bayer Aktiengesellschaft, priority 2021, published 2024).

Key:
Assay type in all cases: in vivo
Setaria viridis (SETVI) = assay: Herbicidal pre-emergence action, 1280 g/ha (Table A8); conditions: visual grading after ca. 3 weeks vs untreated controls
Description: (§1) Seeds of mono- and dicotyledonous weed plants were sown in plastic pots (double sowings with one species of mono- and one species of dicotyledonous weed plants per pot), in sandy loam, and covered with soil. The compounds according to the invention, formulated in the form of wettable powders (WP) or as emulsifiable concentrates (EC), were applied to the surface of the covering soil as an aqueous suspension or as an emulsion, with the addition of 0.5% of an additive, at an application rate of 600 litres of water per hectare (converted). Following treatment, the pots were placed in a greenhouse and kept under optimum growth conditions for the test plants. The visual grading of the damage to the test plants was carried out after ca. 3 weeks in comparison to untreated controls (herbicidal effect in percent (%): 100% effect=plants have died, 0% effect=as control plants). Tables A1 to A11 below, show the effects of selected compounds of the general formula (I) according to Table 1 on various harmful plants and an application rate corresponding to 1280 g/ha obtained by the experimental procedure mentioned above.

Kochia scoparia (KCHSC) [1] = assay: Herbicidal pre-emergence action, 1280 g/ha (Table A4); conditions: visual grading after ca. 3 weeks vs untreated controls
Description: as §1

Lolium rigidum (LOLRI) [2] = assay: Herbicidal pre-emergence action, 1280 g/ha (Table A5); conditions: visual grading after ca. 3 weeks vs untreated controls
Description: as §1

[3] = system: Matricaria inodora (MATIN); assay: Herbicidal pre-emergence action, 1280 g/ha (Table A6); conditions: visual grading after ca. 3 weeks vs untreated controls
Description: as §1

Stellaria media (STEME) [4] = assay: Herbicidal pre-emergence action, 1280 g/ha (Table A9); conditions: visual grading after ca. 3 weeks vs untreated controls
Description: as §1

[5] = system: Amaranthus retroflexus (AMARE); assay: Herbicidal pre-emergence action, 1280 g/ha (Table A11); conditions: visual grading after ca. 3 weeks vs untreated controls
Description: as §1

[6] = system: Abutilon theophrasti (ABUTH); assay: Herbicidal post-emergence action, 1280 g/ha (Table B1); conditions: visual assessment after ca. 3 weeks vs untreated controls
Description: (§2) Seeds of mono- and dicotyledonous weed plants were sown in plastic pots (double sowings with one species of mono- and one species of dicotyledonous weed plants per pot), in sandy loam, covered with soil and grown under controlled growth conditions. 2 to 3 weeks after sowing, the test plants were sprayed in the single-leaf stage. The compounds according to the invention, formulated in the form of wettable powders (WP) or as emulsifiable concentrates (EC), were sprayed onto the green plant parts as an aqueous suspension or as an emulsion, with the addition of 0.5% of an additive, at an application rate of 600 litres of water per hectare (converted). The test plants were placed in the greenhouse for ca. 3 weeks under optimum growth conditions, and then the effect of the preparations was assessed visually in comparison with untreated controls (herbicidal effect in percent (%): 100% effect=plants have died, 0% effect=as control plants). Tables B1 to B11 below, show the effects of selected compounds of the general formula (I) according to Table 1 on various harmful plants using an application rate corresponding to 1280 g/ha obtained by the experimental procedure mentioned above.

Kochia scoparia (KCHSC) [7] = assay: Herbicidal post-emergence action, 1280 g/ha (Table B4); conditions: visual assessment after ca. 3 weeks vs untreated controls
Description: as §2

Lolium rigidum (LOLRI) [8] = assay: Herbicidal post-emergence action, 1280 g/ha (Table B5); conditions: visual assessment after ca. 3 weeks vs untreated controls
Description: as §2

[9] = system: Matricaria inodora (MATIN); assay: Herbicidal post-emergence action, 1280 g/ha (Table B6); conditions: visual assessment after ca. 3 weeks vs untreated controls
Description: as §2

Stellaria media (STEME) [10] = assay: Herbicidal post-emergence action, 1280 g/ha (Table B9); conditions: visual assessment after ca. 3 weeks vs untreated controls
Description: as §2

Veronica persica (VERPE) [11] = assay: Herbicidal post-emergence action, 1280 g/ha, VERPE; conditions: visual grading vs untreated controls
Description: as §2, with “plants).” for “plants). Tables B1 to B11 below, show the effects of selected compounds of the general formula (I) according to Table 1 on various harmful plants using an application rate corresponding to 1280 g/ha obtained by the experimental procedure mentioned above.”
(§3) Tables B1 to B11 below, show the effects of selected compounds of the general formula (I) according to Table 1 on various harmful plants using an application rate corresponding to 1280 g/ha obtained by the experimental procedure mentioned above.

[12] = system: Amaranthus retroflexus (AMARE); assay: Herbicidal post-emergence action, 1280 g/ha, AMARE; conditions: visual grading vs untreated controls
Description: as §2, with “plants).” for “plants). Tables B1 to B11 below, show the effects of selected compounds of the general formula (I) according to Table 1 on various harmful plants using an application rate corresponding to 1280 g/ha obtained by the experimental procedure mentioned above.”
as §3

Kochia scoparia (KCHSC) [13] = assay: Herbicidal post-emergence action, 320 g/ha, KCHSC; conditions: visual grading after ca. 3 weeks
Description: as §2, with “plants).” for “plants). Tables B1 to B11 below, show the effects of selected compounds of the general formula (I) according to Table 1 on various harmful plants using an application rate corresponding to 1280 g/ha obtained by the experimental procedure mentioned above.”
(§4) Tables D1 to D8 below, show the effects of selected compounds of the general formula (I) according to Table 1 on various harmful plants using an application rate corresponding to 320 g/ha obtained by the experimental procedure mentioned above.

[14] = system: Matricaria inodora (MATIN); assay: Herbicidal post-emergence action, 320 g/ha, MATIN; conditions: visual grading after ca. 3 weeks
Description: as §2, with “plants).” for “plants). Tables B1 to B11 below, show the effects of selected compounds of the general formula (I) according to Table 1 on various harmful plants using an application rate corresponding to 1280 g/ha obtained by the experimental procedure mentioned above.”
as §4

Stellaria media (STEME) [15] = assay: Herbicidal post-emergence action, 320 g/ha, STEME; conditions: visual grading after ca. 3 weeks
Description: as §2, with “plants).” for “plants). Tables B1 to B11 below, show the effects of selected compounds of the general formula (I) according to Table 1 on various harmful plants using an application rate corresponding to 1280 g/ha obtained by the experimental procedure mentioned above.”
as §4

Veronica persica (VERPE) [16] = assay: Herbicidal post-emergence action, 320 g/ha, VERPE; conditions: visual grading after ca. 3 weeks
Description: as §2, with “plants).” for “plants). Tables B1 to B11 below, show the effects of selected compounds of the general formula (I) according to Table 1 on various harmful plants using an application rate corresponding to 1280 g/ha obtained by the experimental procedure mentioned above.”
as §4

[17] = system: Amaranthus retroflexus (AMARE); assay: Herbicidal post-emergence action, 320 g/ha, AMARE; conditions: visual grading after ca. 3 weeks
Description: as §2, with “plants).” for “plants). Tables B1 to B11 below, show the effects of selected compounds of the general formula (I) according to Table 1 on various harmful plants using an application rate corresponding to 1280 g/ha obtained by the experimental procedure mentioned above.”
as §4

[18] = system: Abutilon theophrasti (ABUTH); assay: Herbicidal pre-emergence action, 1280 g/ha (Table A1); conditions: visual grading after ca. 3 weeks vs untreated controls
Description: as §1

Lolium rigidum (LOLRI) [19] = assay: Herbicidal pre-emergence action, 320 g/ha (Table C2); conditions: visual grading after ca. 3 weeks vs untreated controls
Description: as §1, with “Tables C1” for “Tables A1”, “to C6” for “to A11”, “plants using” for “plants and”, “to 320” for “to 1280”

Stellaria media (STEME) [20] = assay: Herbicidal pre-emergence action, 320 g/ha, STEME; conditions: visual grading after ca. 3 weeks
Description: as §1, with “plants).” for “plants). Tables A1 to A11 below, show the effects of selected compounds of the general formula (I) according to Table 1 on various harmful plants and an application rate corresponding to 1280 g/ha obtained by the experimental procedure mentioned above.”
Tables C1 to C6 below, show the effects of selected compounds of the general formula (I) according to Table 1 on various harmful plants using an application rate corresponding to 320 g/ha obtained by the experimental procedure mentioned above.

[21] = system: Abutilon theophrasti (ABUTH); assay: Herbicidal post-emergence action, 320 g/ha, ABUTH; conditions: visual grading after ca. 3 weeks
Description: as §2, with “plants).” for “plants). Tables B1 to B11 below, show the effects of selected compounds of the general formula (I) according to Table 1 on various harmful plants using an application rate corresponding to 1280 g/ha obtained by the experimental procedure mentioned above.”
as §4

Lolium rigidum (LOLRI) [22] = assay: Herbicidal post-emergence action, 320 g/ha, LOLRI; conditions: visual grading after ca. 3 weeks
Description: as §2, with “plants).” for “plants). Tables B1 to B11 below, show the effects of selected compounds of the general formula (I) according to Table 1 on various harmful plants using an application rate corresponding to 1280 g/ha obtained by the experimental procedure mentioned above.”
as §4

Row | Structure (SMILES) | herbicidal effect KCHSC (Kochia scoparia (KCHSC) [1]) [%] | herbicidal effect LOLRI (Lolium rigidum (LOLRI) [2]) [%] | herbicidal effect MATIN [3] [%] | herbicidal effect STEME (Stellaria media (STEME) [4]) [%] | herbicidal effect AMARE [5] [%] | herbicidal effect ABUTH [6] [%] | herbicidal effect KCHSC (Kochia scoparia (KCHSC) [7]) [%] | herbicidal effect LOLRI (Lolium rigidum (LOLRI) [8]) [%] | herbicidal effect MATIN [9] [%] | herbicidal effect STEME (Stellaria media (STEME) [10]) [%] | herbicidal effect VERPE (Veronica persica (VERPE) [11]) [%] | herbicidal effect AMARE [12] [%] | herbicidal effect KCHSC (Kochia scoparia (KCHSC) [13]) [%] | herbicidal effect MATIN [14] [%] | herbicidal effect STEME (Stellaria media (STEME) [15]) [%] | herbicidal effect VERPE (Veronica persica (VERPE) [16]) [%] | herbicidal effect AMARE [17] [%] | herbicidal effect ABUTH [21] [%] | also measured
1 | CCOC(=O)Oc1c(C)nn(C)c(=O)c1Oc1ccccc1C(F)(F)F [Example I-009, [1,3-dimethyl-6-oxo-5-[2-(trifluoromethyl)phenoxy]pyridazin-4-yl] ethyl carbonate] | – | – | – | – | – | – | – | – | – | – | – | – | – | – | – | – | – | – | herbicidal effect SETVI (Setaria viridis (SETVI)): 100%
2 | CCOC(=O)Oc1c(C)nn(C)c(=O)c1Oc1ccccc1OC(F)(F)F [Example I-013] | 90 | 100 | 100 | 100 | 90 | 100 | 100 | 100 | 100 | 100 | 100 | 90 | 100 | 90 | 100 | 90 | 90 | – | –
3 | Cc1nn(C)c(=O)c(Oc2cc(F)ccc2C2CC2)c1O [Example I-046] | – | 100 | 90 | 100 | 90 | 100 | 90 | 100 | 100 | 100 | 100 | 100 | – | 90 | 90 | 90 | 90 | 100 | herbicidal effect ABUTH [18]: 90%; herbicidal effect LOLRI (Lolium rigidum (LOLRI) [19]): 90%; herbicidal effect STEME (Stellaria media (STEME) [20]): 100%
4 | CCOC(=O)Oc1c(C)nn(C)c(=O)c1Oc1cccc(F)c1C1CC1 [Example I-058] | 90 | 90 | – | 90 | – | 100 | 100 | 100 | 100 | 90 | 90 | 90 | 90 | – | 90 | – | 90 | 90 | herbicidal effect LOLRI (Lolium rigidum (LOLRI) [22]): 90%
